Earlier results as cited in US8143291B2, “Indole compounds bearing aryl or heteroaryl groups having sphingosine-1-phosphate (S1P) receptor biological activity” (Allergan, Inc., priority 2008, dated 2012).

System: perfused porcine eyes
Conditions: by altering paracellular permeability, IOVS 45, 2263, 2004

Structure (SMILES): CCCCCCCCCCCCC/C=C/[C@@H](O)[C@@H](N)COP(=O)(O)O [S1P, Sphingosine-1-phosphate]
- decrease of outflow facility: > 30%
